In US20260083865A1, “PROSTATE SPECIFIC MEMBRANE ANTIGEN (PSMA) LIGANDS AND USE THEREOF” (priority 2022, published 2026):
Where two headings read alike, the source gives them in different places. Numbered stars: 1 amine (or outer) side, 2 acyl side, 3 side chain; on linkers, the order of the positions; unused ones are H or OH. Bridge positions count the residues as written; N and C are the ends. Square brackets hold non-standard residues; d marks the D form. Peptide text beside a SMILES is read from it. * marks the point of attachment. TtdsdLys(DOTA)NH2 = NC(=O)[C@@H](CCCCNC(=O)CN1CCN(CC(=O)O)CCN(CC(=O)O)CCN(CC(=O)O)CC1)NC(=O)CCC(=O)NCCCOCCOCCOCCCN*; DOTA = O=C(O)CN1CCN(CC(=O)O)CCN(CC(=O)*)CCN(CC(=O)O)CC1; Phe(4-Cl) = N[C@@H](Cc1ccc(Cl)cc1)C(=O)O; 1Nal = N[C@@H](Cc1cccc2ccccc12)C(=O)O; Arg(Me) = CNC(=N)NCCC[C@H](N)C(=O)O; d(αMeD) = C[C@@](N)(CC(=O)O)C(=O)O; αMeF = C[C@](N)(Cc1ccccc1)C(=O)O; X1 = O=C(CC1CCN([*:1])CC1)[*:2]; Lys(Me) = CNCCCC[C@H](N)C(=O)O; Tle = CC(C)(C)[C@H](N)C(=O)O; αMeP = C[C@@]1(C(=O)O)CCCN1; 4Abz = Nc1ccc(C(=O)O)cc1; Hexanoyl = CCCCCC(=O)*; Aib = CC(C)(N)C(=O)O; CO = O=C([*:1])[*:2]; CH2 = C([*:1])[*:2]; βAla = NCCC(=O)O; NHBu = CCCCN*

What was measured:
[1] = target: T1, Fc-fusion protein of human PSMA (hPSMA-Fc) (Homo sapiens, UniProt Q04609); experiment: Surface plasmon resonance assay (Biacore T200, single cycle kinetic); assay type: binding; conditions: read-out: pKD CAT (converted)
T1 construct: purchased Acro Biosystems PSA-H5264
T1 sequence (Q04609 44-750 limits assumed): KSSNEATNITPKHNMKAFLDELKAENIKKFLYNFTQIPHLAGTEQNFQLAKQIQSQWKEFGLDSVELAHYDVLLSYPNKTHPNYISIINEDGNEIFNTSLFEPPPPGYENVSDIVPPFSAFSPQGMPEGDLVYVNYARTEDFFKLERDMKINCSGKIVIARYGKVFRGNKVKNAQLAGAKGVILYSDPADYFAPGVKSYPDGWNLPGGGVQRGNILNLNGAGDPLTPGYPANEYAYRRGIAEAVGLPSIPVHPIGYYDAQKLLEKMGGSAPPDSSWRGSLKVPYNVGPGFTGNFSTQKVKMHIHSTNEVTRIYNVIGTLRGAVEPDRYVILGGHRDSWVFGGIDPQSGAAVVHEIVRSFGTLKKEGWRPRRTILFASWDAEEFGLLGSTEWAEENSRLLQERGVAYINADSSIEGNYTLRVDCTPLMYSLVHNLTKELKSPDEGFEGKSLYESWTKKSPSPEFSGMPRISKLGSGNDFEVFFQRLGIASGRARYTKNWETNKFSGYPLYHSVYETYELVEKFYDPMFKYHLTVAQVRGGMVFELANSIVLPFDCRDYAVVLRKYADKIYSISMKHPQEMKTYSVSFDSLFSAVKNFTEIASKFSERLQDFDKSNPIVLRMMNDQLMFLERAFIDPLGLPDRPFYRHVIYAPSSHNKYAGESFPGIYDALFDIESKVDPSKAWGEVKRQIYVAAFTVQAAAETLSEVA
Summary of the method: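 KD, expressed as pKD, came from 1:1 Langmuir fits of reference- and buffer-blank-subtracted SPR data. The runs were single-cycle kinetics at 25° C in HBST/0.1% DMSO over human PSMA-Fc, captured to ~1000 RU on a peptide-coated CM5 surface and regenerated with 10 mM glycine pH 1.5.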

[2] = target: T2, PSMA-expressing C4-2 cells (Homo sapiens, UniProt Q04609); experiment: FACS binding assay (competition with 50 nM PSM-0183); conditions: for IC50: read-out: pIC50 [C4-2] CAT (converted)
T2 construct: PSMA-expressing C4-2 cells (ATCC, Cat. No. CRL-3314) were cultured in RPMI-1640; host or cells: C4-2 cells
T2 sequence (Q04609 whole entry): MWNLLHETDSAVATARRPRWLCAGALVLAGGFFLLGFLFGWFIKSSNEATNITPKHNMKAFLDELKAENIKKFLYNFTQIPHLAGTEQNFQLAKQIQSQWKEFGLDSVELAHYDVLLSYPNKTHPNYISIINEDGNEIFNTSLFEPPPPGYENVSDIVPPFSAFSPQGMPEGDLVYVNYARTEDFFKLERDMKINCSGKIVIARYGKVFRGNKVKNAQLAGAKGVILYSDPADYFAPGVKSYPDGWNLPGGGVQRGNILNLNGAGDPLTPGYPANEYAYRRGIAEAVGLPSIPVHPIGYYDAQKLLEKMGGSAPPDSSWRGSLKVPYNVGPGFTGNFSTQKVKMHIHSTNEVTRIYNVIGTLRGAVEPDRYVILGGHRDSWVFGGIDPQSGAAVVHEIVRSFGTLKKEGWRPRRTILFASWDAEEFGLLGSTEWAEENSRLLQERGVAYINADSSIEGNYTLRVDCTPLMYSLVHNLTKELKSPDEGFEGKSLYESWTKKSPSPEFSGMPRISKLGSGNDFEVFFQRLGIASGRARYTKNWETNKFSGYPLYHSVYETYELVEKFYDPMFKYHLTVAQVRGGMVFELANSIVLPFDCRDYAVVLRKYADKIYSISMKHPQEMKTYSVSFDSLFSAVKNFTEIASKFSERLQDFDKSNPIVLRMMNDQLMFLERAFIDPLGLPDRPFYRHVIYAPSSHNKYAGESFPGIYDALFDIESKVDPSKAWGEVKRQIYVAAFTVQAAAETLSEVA
Summary of the method: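 Competition format: fluorescent tracer PSM-0183 (50 nM) displaced from PSMA on C4-2 cells by a test compound titration over 1 h at 4 °C. Bound tracer was quantified as flow-cytometric AF488 median fluorescence after washing. Four-parameter logistic fits of MFI data gave IC50 and pIC50.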

[3] = pKD category for PSMA SPR activity assay, hPSMA-Fc, 25° C.
[4] = pIC50 category of FACS binding, C4-2 cells
[5] = PSMA SPR assay, hPSMA-Fc, 25° C., pKD category
[6] = FACS binding, PSMA-expressing C4-2 cells, pIC50 category
[7] = SPR, hPSMA-Fc, single cycle kinetic, 25° C., category
[8] = FACS binding, C4-2 cells, competition with 50 nM PSM-0183, category
[9] = FACS binding, C4-2 cells, category

Kd [1, 3] | IC50 [2, 4] | Kd [1, 5] | Compound | further results
12.6 to 126 nM | > 3160 nM |  | CC(=O)N[C@H](C(=O)N[C@@H](C)C(=O)N[C@@](C)(Cc1ccccc1)C(=O)N[C@H]1CSSC[C@@H](C(=O)N[C@H](C(=O)N[C@H](C(N)=O)[C@@H](C)O)C(C)(C)C)NC(=O)[C@H](CC(N)=O)NC(=O)C(C)(C)NC(=O)[C@H](CCCNC(=N)N)NC(=O)[C@H](CCCCN)NC1=O)[C@@H](C)O [PSM-0414, Ac-Thr-Ala-Amf-[Cys-Lys-Arg-Aib-Asn-Cys]-Tle-Thr-NH2] (Ac-TA[αMeF]CKR[Aib]NC[Tle]T-NH2; disulfide 4-9) | 
< 12.6 nM | < 200 nM |  | CCCCNC(=O)N[C@H](C(=O)NC(C)(C)C(=O)N[C@@H](Cc1ccccc1)C(=O)N[C@H]1CSSC[C@@H](C(=O)N[C@H](C(=O)N[C@H](C(=O)N2CCC(CC(=O)N[C@H](CCCCNC(=O)CN3CCN(CC(=O)O)CCN(CC(=O)O)CCN(CC(=O)O)CC3)C(N)=O)CC2)[C@@H](C)O)C(C)(C)C)NC(=O)[C@H](CC(N)=O)NC(=O)C(C)(C)NC(=O)[C@H](CCCNC(=N)N)NC(=O)[C@H](CCCCN)NC1=O)[C@@H](C)O [PSM-0484, nBuCAyl-Thr-Aib-Phe-[Cys-Lys-Arg-Aib-Asn-Cys]-Tle-Thr-Cmp-lys(DOTA)-NH2] ({NHBu-CO}-T[Aib]FCKR[Aib]NC[Tle]T[X1][dK](DOTA)-NH2; disulfide 4-9) | 
 |  | 12.6 to 126 nM | CC(=O)N[C@H](C(=O)NC(C)(C)C(=O)N[C@@H](Cc1ccccc1)C(=O)N[C@H]1CSSC[C@@H](C(=O)N[C@H](C(=O)N[C@H](C(=O)N[C@@H](CC(=O)O)C(N)=O)[C@@H](C)O)C(C)(C)C)NC(=O)[C@H](CC(N)=O)NC(=O)[C@H](C)NC(=O)[C@H](CCCNC(=N)N)NC(=O)[C@H](CCCCN)NC1=O)[C@@H](C)O [PSM-0315, Ac-Thr-Aib-Phe-[Cys-Lys-arg-Als-Asn-Cys]-Tle-Thr-Asp-NH2] (Ac-T[Aib]FCKRANC[Tle]TD-NH2; disulfide 4-9) | pIC50 [C4-2] CAT [2, 6]: A (pIC50 values >6.7)
 |  |  | CC(=O)N[C@H](C(=O)NC(C)(C)C(=O)N[C@@H](Cc1cccc2ccccc12)C(=O)N[C@H]1CSSC[C@@H](C(=O)N[C@H](C(=O)N[C@H](C(=O)N[C@@H](CC(=O)O)C(N)=O)[C@@H](C)O)C(C)(C)C)NC(=O)[C@H](CC(N)=O)NC(=O)C(C)(C)NC(=O)[C@H](CCCNC(=N)N)NC(=O)[C@H](CCCCN)NC1=O)[C@@H](C)O [PSM-0249, Ac-Thr-Aib-1Ni-[Cys-Lys-Arg-Aib-Asn-Cys]-Tle-Thr-Asp-NH2] (Ac-T[Aib][1Nal]CKR[Aib]NC[Tle]TD-NH2; disulfide 4-9) | Kd [1, 7]: < 12.6 nM; IC50 [2, 8]: < 200 nM
< 12.6 nM | < 200 nM |  | CC(=O)N[C@H](C(=O)N1CCC[C@@]1(C)C(=O)N[C@@H](Cc1ccccc1)C(=O)N[C@H]1CSSC[C@@H](C(=O)N[C@H](C(=O)N[C@H](C(N)=O)[C@@H](C)O)C(C)(C)C)NC(=O)[C@H](CC(N)=O)NC(=O)C(C)(C)NC(=O)[C@H](CCCNC(=N)N)NC(=O)[C@H](CCCCN)NC1=O)[C@@H](C)O [PSM-0508, Ac-Thr-Pam-Phe-[Cys-Lys-Arg-Aib-Asn-Cys]-Tle-Thr-NH2] (Ac-T[αMeP]FCKR[Aib]NC[Tle]T-NH2; disulfide 4-9) | 
 |  | 12.6 to 126 nM | CCCCCC(=O)N[C@H](C(=O)NC(C)(C)C(=O)N[C@@H](Cc1ccccc1)C(=O)N[C@H]1CSSC[C@@H](C(=O)N[C@H](C(=O)N[C@H](C(=O)NCCCOCCOCCOCCCNC(=O)CCC(=O)N[C@H](CCCCNC(=O)CN2CCN(CC(=O)O)CCN(CC(=O)O)CCN(CC(=O)O)CC2)C(N)=O)[C@@H](C)O)C(C)(C)C)NC(=O)[C@H](CC(N)=O)NC(=O)C(C)(C)NC(=O)[C@H](CCC(N)=O)NC(=O)[C@H](CCCCN)NC1=O)[C@@H](C)O [PSM-0289, Hex-Thr-Aib-Pho-[Cys-Lys-Gln-Aib-Asn-Cys]-Tle-Thr-Ttds-lys(DOTA)-NH2] (Hexanoyl-T[Aib]FCKQ[Aib]NC[Tle]T-{TtdsdLys(DOTA)NH2}; disulfide 4-9) | IC50 [2, 6]: 200 to 1260 nM
 |  |  | CC(=O)N[C@H](C(=O)NC(C)(C)C(=O)N[C@@H](Cc1ccccc1)C(=O)N[C@H]1CSCSC[C@@H](C(=O)N[C@H](C(=O)N[C@H](C(=O)N[C@@H](CC(=O)O)C(N)=O)[C@@H](C)O)C(C)(C)C)NC(=O)[C@H](CC(N)=O)NC(=O)[C@H](C)NC(=O)[C@H](CCCNC(=N)N)NC(=O)[C@H](CCCCN)NC1=O)[C@@H](C)O [PSM-0567, Ac-Thr-Aib-Phe-[Smc-Lys-Arg-Ala-Asn-Cys]-Tle-Thr-Asp-NH2] (Ac-T[Aib]FCKRANC[Tle]TD-NH2; linker 4-9 via CH2) | Kd ([1]; PSMA SPR assay, category): < 12.6 nM; IC50 [2, 9]: < 200 nM
 |  |  | CNCCCC[C@@H]1NC(=O)[C@@H](NC(=O)[C@H](Cc2ccc(Cl)cc2)NC(=O)C(C)(C)NC(=O)[C@@H](NC(=O)CC2CCN(C(=O)CN3CCN(CC(=O)O)CCN(CC(=O)O)CCN(CC(=O)O)CC3)CC2)[C@@H](C)O)CSSC[C@@H](C(=O)N[C@H](C(=O)NCCC(N)=O)C(C)(C)C)NC(=O)[C@H](CC(N)=O)NC(=O)C(C)(C)NC(=O)[C@H](CCCNC(=N)NC)NC1=O [PSM-606] ({DOTA}-[X1]T[Aib][Phe(4-Cl)]C[Lys(Me)][Arg(Me)][Aib]NC[Tle][βAla]-NH2; disulfide 5-10) | Kd ([1]; PSMA SPR assay, category): < 12.6 nM; IC50 [2, 9]: < 200 nM
 |  | > 501 nM | CC(=O)N[C@@H](Cc1ccc(Cl)cc1)C(=O)N[C@H]1CSSC[C@@H](C(=O)N[C@H](C(N)=O)C(C)(C)C)NC(=O)[C@H](CC(N)=O)NC(=O)C(C)(C)NC(=O)[C@H](CCCNC(=N)N)NC(=O)[C@H](CCCCN)NC1=O [PSM-0281, Ac-Pcf-[Cys-Lys-Arg-Aib-Asn-Cys]-Tle-NH2] (Ac-[Phe(4-Cl)]CKR[Aib]NC[Tle]-NH2; disulfide 2-7) | IC50 [2, 6]: > 3160 nM
 |  | < 12.6 nM | CC(=O)N[C@H](C(=O)NC(C)(C)C(=O)N[C@@H](Cc1ccccc1)C(=O)N[C@H]1CSSC[C@@H](C(=O)N[C@H](C(=O)N[C@H](C(N)=O)[C@@H](C)O)C(C)(C)C)NC(=O)[C@H](CO)NC(=O)C(C)(C)NC(=O)[C@H](CCCNC(=N)N)NC(=O)[C@H](CCCCN)NC1=O)[C@@H](C)O [PSM-0279, Ac-Thr-Aib-Phe-[Cys-Lys-Arg-Aib-Ser-Cys]-Tle-Thr-NH2] (Ac-T[Aib]FCKR[Aib]SC[Tle]T-NH2; disulfide 4-9) | IC50 [2, 6]: < 200 nM
 |  |  | C[C@@H](O)[C@H](NC(=O)[C@@H](NC(=O)[C@@H]1CSSC[C@H](NC(=O)[C@H](Cc2ccc(Cl)cc2)NC(=O)C(C)(C)NC(=O)[C@@H](NC(=O)CC2CCN(C(=O)CN3CCN(CC(=O)O)CCN(CC(=O)O)CCN(CC(=O)O)CC3)CC2)[C@@H](C)O)C(=O)N[C@@H](CCCCN)C(=O)N[C@@H](CCCNC(=N)N)C(=O)N[C@](C)(CC(=O)O)C(=O)N[C@@H](CC(N)=O)C(=O)N1)C(C)(C)C)C(N)=O [PSM-0227, DOTA-Cmp-Thr-Aib-Pcf-[Cys-Lys-Arg-amd-Asn-Cys]-Tle-Thr-NH2] ({DOTA}-[X1]T[Aib][Phe(4-Cl)]CKR[d(αMeD)]NC[Tle]T-NH2; disulfide 5-10) | Kd [1, 7]: < 12.6 nM; IC50 [2, 8]: < 200 nM

Compound | Kd [1, 3] | IC50 [2, 4] | Kd [1, 5] | further results
C[C@@H](O)[C@H](NC(=O)[C@@H](NC(=O)[C@@H]1CSSC[C@H](NC(=O)[C@H](Cc2ccccc2)NC(=O)C(C)(C)NC(=O)[C@@H](NC(=O)c2ccc(NC(=O)CN3CCN(CC(=O)O)CCN(CC(=O)O)CCN(CC(=O)O)CC3)cc2)[C@@H](C)O)C(=O)N[C@@H](CCCCN)C(=O)N[C@@H](CCCNC(=N)N)C(=O)NC(C)(C)C(=O)N[C@@H](CC(N)=O)C(=O)N1)C(C)(C)C)C(N)=O [PSM-0448, DOTA-Pab-Thr-Aib-Phe-[Cys-Lys-Arg-Aib-Asn-Cys]-Tle-Thr-NH2] ({DOTA-4Abz}-T[Aib]FCKR[Aib]NC[Tle]T-NH2; disulfide 4-9) | < 12.6 nM | < 200 nM |  | 
